Measured values reported in patent US20260199309A1, “COMPOUNDS FOR THE TREATMENT OF CENTRA NERVOUS SYSTEM DISORDERS” (Autifony Therapeutics Limited, priority 2022, published 2026).

What was measured:
[1] = target: CYP2D6 (Homo sapiens, UniProt P10635); assay: CYP450 inhibition, pro-fluorescent probe substrate (2D6/MMMC); type: in vitro ADME; conditions: recombinant human CYP450, substrate MMMC; top concentration 5.00E-05
[2] = In vitro metabolic stability (CLint), human; type: in vitro ADME; conditions: intrinsic clearance, incubation 0-30 minutes at 37° C. with NADPH regenerating system
Protocol: The objective of this study was to determine metabolic stability of test items in preclinical species and human liver microsomes. Verapamil and dextromethorphan were used as positive controls for microsomal incubation.
Incubation medium was prepared by combining 11.2 mL of potassium phosphate monobasic and 38.8 mL of potassium phosphate dibasic, diluted to 1 L with water. Cryopreserved microsomes were thawed and kept on ice until use. Microsomes were then diluted in incubation to a protein concentration of 0.56 mg/mL. Cells were centrifuged, re-suspended in medium and counted by means of a haemocytometer. Cell viability was measured using the Trypan Blue exclusion test.
NADPH regenerating system solution was prepared by dissolving 1.7 mg of NADP, 7.8 mg of G6P and 6 units of G6P-Dehydrogenase in 1 mL of 2% sodium bicarbonate solution (prepared by dissolving 20 g of NaHCO3 in 1 L of water).
Test compounds were separately dissolved in DMF to obtain 10 mM stock solutions that were further diluted in water/acetonitrile 50/50 (v/v) to obtain the corresponding 50 uM working solutions. Verapamil and dextromethorphan were dissolved in DMF in order to obtain a 10 mM verapamil solution and 10 mM dextromethorphan solution. These solutions were then diluted in the incubation medium in order to obtain a 50 uM verapamil working solution and a 50 uM dextromethorphan working solution.
800 μL-aliquots of NADPH regenerating system were pre-warmed at 37° C. for 5 minutes. […]
Metabolic stability was calculated from the peak area ratio of the remaining test compound with internal standard versus time. The intrinsic clearance (CLint) was determined from the first order elimination constant k (min^−1) (obtained from GraphPad by plotting the natural logarithm of the peak area ratio of the remaining test item with internal standard versus time), using the actual volume of the incubation V (mL), the amount of hepatocytes in the incubation M (million cells) and the hepatocellularity number per g liver Hn (120 for human).

Chain of CYP2D6 (P10635 whole entry): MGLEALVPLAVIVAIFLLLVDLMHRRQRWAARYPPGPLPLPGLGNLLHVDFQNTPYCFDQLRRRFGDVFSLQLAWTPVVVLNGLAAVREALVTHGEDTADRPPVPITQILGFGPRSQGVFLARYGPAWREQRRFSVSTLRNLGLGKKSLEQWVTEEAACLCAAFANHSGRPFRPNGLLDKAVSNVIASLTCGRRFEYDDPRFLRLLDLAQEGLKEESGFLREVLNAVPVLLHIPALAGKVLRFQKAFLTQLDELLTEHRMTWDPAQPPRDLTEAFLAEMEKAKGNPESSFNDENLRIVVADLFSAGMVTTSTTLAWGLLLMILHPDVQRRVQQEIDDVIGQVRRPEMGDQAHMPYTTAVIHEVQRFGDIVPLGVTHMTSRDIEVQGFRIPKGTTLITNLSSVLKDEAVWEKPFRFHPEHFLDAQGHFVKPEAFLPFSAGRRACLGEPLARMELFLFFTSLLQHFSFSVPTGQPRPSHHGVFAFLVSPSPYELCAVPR

SMILES	IC50 [1]	CLi human [2]
Cc1ccc(Oc2ccc(N3C(=O)NC(C)(C)C3=O)c(N)n2)c2c1OCC21CC1 [Example 1, 3-[2-amino-6-(7-methylspiro[2H-benzofuran-3,1′-cyclopropane]-4-yl)oxy-3-pyridyl]-5,5-dimethyl-imidazolidine-2,4-dione]	> 50 µM	1.1 mL/min/g liver
CC1(C)NC(=O)N(c2ccc(Oc3cccc(OC(F)(F)F)c3)nc2N)C1=O [Example 9, 3-[2-amino-6-[3-(trifluoromethoxy)phenoxy]-3-pyridyl]-5,5-dimethyl-imidazolidine-2,4-dione]	> 50 µM	<0.5 mL/min/g liver
COc1nc(Oc2ccc(C)c3c2C2(CC2)CO3)ccc1N1C(=O)NC(C)(C)C1=O [Reference Example 2, reference compound]	> 50 µM	2.0 mL/min/g liver
